System: Spermacoce verticillate
Assay: Example 1 trial: herbicidal combinations on Spermacoce verticillate resistant to Group 4 and Group 9 herbicides
Type: in vivo
Details: for % weed control at 14 DA-B: 14 days after sequential application B, B applied 15 days after A, scale 0 (no damage) to 100 (complete destruction) vs untreated control, rates per Table 1; for control of S. verticillate weeds (in words): Example 1, sequential application used after glyphosate+triclopyr at 15 DA-A
Method: Trials were carried out for evaluating the effect of herbicidal combinations on target weeds of Spermacoce verticillate resistant to herbicides belonging to Group 4 and Group 9. The evaluation for the damage on undesired weeds caused by the present compositions was carried out using a scale from 0 to 100%, compared to the untreated control plants. Here, 0 means no damage and 100 means complete destruction of weed. In the following experiments, the herbicidal activity for the herbicidal combinations was assessed till 28 days after treatment (application A).
In this trial, time T was application time, application A was performed first and at 15 days, application B was performed out in treatments with sequential application. The tested herbicides were sourced from the formulations readily available.

| Structure (SMILES) | % weed control at 14 DA-B [%] | control of S. verticillate weeds (in words) |
| --- | --- | --- |
| O=C(O)CNCP(=O)(O)O [Glyphosate (A), N-(phosphonomethyl)glycine] | 22 | do not efficiently control |
| O=C(O)COc1nc(Cl)c(Cl)cc1Cl [Triclopyr (A), Triclopyr] | 42.5 | do not efficiently control |
